For test [1], the system named is Staphylococcus aureus. Nature of the test: Antibiofilm activity against Staphylococcus aureus MLS-16 MTCC 2940 assessed as inhibition of biofilm formation by crystal violet staining-based microtitre plate assay. It counts as functional, organism-based.
Test [2] concerns Escherichia coli. Briefly: Bactericidal activity against Escherichia coli MTCC 739 assessed as reduction in bacterial survival incubated for 24 hrs followed by transfer of microbial suspension to agar plates and measured at 24 hrs post transfer by agar well diffusion method. Format: functional. The settings on record: MTCC 739, 24 h. On the technique in general: Agar diffusion results depend on both activity and mobility in agar.

Test [3] concerns Raoultella planticola. Nature of the test: Antibacterial activity against Klebsiella planticola MTCC 530 assessed as reduction in bacterial growth incubated for 24 hrs by agar well diffusion method. Format: functional. The settings on record: MTCC 530, 24 h.
In test [4] the test system is Staphylococcus aureus. Nature of the test: Bactericidal activity against Staphylococcus aureus MLS-16 MTCC 2940 assessed as reduction in bacterial survival incubated for 24 hrs followed by transfer of microbial suspension to agar plates and measured at 24 hrs post transfer by agar well diffusion method. Format: functional. The settings on record: MLS-16 MTCC 2940, 24 h.

The test system of test [5] is Candida albicans. Briefly: Fungicidal activity against Candida albicans MTCC 3017 assessed as reduction in fungal survival incubated for 24 hrs followed by transfer of microbial suspension to agar plates and measured at 24 hrs post transfer by agar well diffusion method. It counts as functional.
Test [6] concerns Escherichia coli. Nature of the test: Antibiofilm activity against Escherichia coli MTCC 739 assessed as inhibition of biofilm formation by crystal violet staining-based microtitre plate assay. It counts as functional, organism-based.
In test [7] the test system is Bacillus subtilis. Nature of the test: Antibiofilm activity against Bacillus subtilis MTCC 121 assessed as inhibition of biofilm formation by crystal violet staining-based microtitre plate assay. It counts as functional, organism-based.
In test [8] the test system is Staphylococcus aureus. Briefly: Antibacterial activity against Staphylococcus aureus MLS-16 MTCC 2940 assessed as reduction in bacterial growth incubated for 24 hrs by agar well diffusion method. Format: functional. Particulars: MLS-16 MTCC 2940, 24 h.
Test [9] relates to Escherichia coli. Briefly: Antibacterial activity against Escherichia coli MTCC 739 assessed as reduction in bacterial growth incubated for 24 hrs by agar well diffusion method. It counts as functional. The settings on record: MTCC 739, 24 h.
The subject of test [10] is Micrococcus luteus. Briefly: Antibacterial activity against Micrococcus luteus MTCC 2470 assessed as reduction in bacterial growth incubated for 24 hrs by agar well diffusion method. It counts as functional. Particulars: MTCC 2470, 24 h.
Test [11] deals with Raoultella planticola. Briefly: Bactericidal activity against Klebsiella planticola MTCC 530 assessed as reduction in bacterial survival incubated for 24 hrs followed by transfer of microbial suspension to agar plates and measured at 24 hrs post transfer by agar well diffusion method. Format: functional. Particulars: MTCC 530, 24 h.
For test [12], the system named is Raoultella planticola. Nature of the test: Antibiofilm activity against Klebsiella planticola MTCC 530 assessed as inhibition of biofilm formation by crystal violet staining-based microtitre plate assay. It counts as functional, organism-based.
In test [13] the test system is Staphylococcus aureus. Nature of the test: Antibacterial activity against Staphylococcus aureus MTCC 96 assessed as reduction in bacterial growth incubated for 24 hrs by agar well diffusion method. Format: functional. The settings on record: MTCC 96, 24 h.
For test [14], the system named is Micrococcus luteus. Briefly: Bactericidal activity against Micrococcus luteus MTCC 2470 assessed as reduction in bacterial survival incubated for 24 hrs followed by transfer of microbial suspension to agar plates and measured at 24 hrs post transfer by agar well diffusion method. Format: functional. The settings on record: MTCC 2470, 24 h.
In test [15] the test system is Micrococcus luteus. Briefly: Antibiofilm activity against Micrococcus luteus MTCC 2470 assessed as inhibition of biofilm formation by crystal violet staining-based microtitre plate assay. It counts as functional, organism-based.
In test [16] the test system is Pseudomonas aeruginosa. Briefly: Bactericidal activity against Pseudomonas aeruginosa MTCC 2453 assessed as reduction in bacterial survival incubated for 24 hrs followed by transfer of microbial suspension to agar plates and measured at 24 hrs post transfer by agar well diffusion method. It counts as functional. Particulars: MTCC 2453, 24 h.
For test [17], the system named is Pseudomonas aeruginosa. Nature of the test: Antibacterial activity against Pseudomonas aeruginosa MTCC 2453 assessed as reduction in bacterial growth incubated for 24 hrs by agar well diffusion method. Format: functional. Particulars: MTCC 2453, 24 h.
Test [18] deals with Staphylococcus aureus. Nature of the test: Antibiofilm activity against Staphylococcus aureus MTCC 96 assessed as inhibition of biofilm formation by crystal violet staining-based microtitre plate assay. Format: functional, organism-based.
In test [19] the test system is Bacillus subtilis. Briefly: Bactericidal activity against Bacillus subtilis MTCC 121 assessed as reduction in bacterial survival incubated for 24 hrs followed by transfer of microbial suspension to agar plates and measured at 24 hrs post transfer by agar well diffusion method. The settings on record: MTCC 121, 24 h. It counts as functional.
The subject of test [20] is Candida albicans. Nature of the test: Antifungal activity against Candida albicans MTCC 3017 assessed as reduction in fungal growth incubated for 24 hrs by agar well diffusion method. It counts as functional.
The test system of test [21] is Bacillus subtilis. Nature of the test: Antibacterial activity against Bacillus subtilis MTCC 121 assessed as reduction in bacterial growth incubated for 24 hrs by agar well diffusion method. Particulars: MTCC 121, 24 h. Format: functional.
For test [22], the system named is Pseudomonas aeruginosa. Nature of the test: Antibiofilm activity against Pseudomonas aeruginosa MTCC 2453 assessed as inhibition of biofilm formation by crystal violet staining-based microtitre plate assay. It counts as functional, organism-based.
The test system of a further test is MRC5. Briefly: Cytotoxicity against human MRC5 cells assessed as reduction in cell viability incubated for 48 hrs by MTT assay. Format: cell-based. Particulars: MRC5, 48 h. A general note: Tetrazolium assays rely on reduction of a dye to a coloured formazan, in cell work by metabolically active cells.
In test [23] the test system is Staphylococcus aureus. Nature of the test: Bactericidal activity against Staphylococcus aureus MTCC 96 assessed as reduction in bacterial survival incubated for 24 hrs followed by transfer of microbial suspension to agar plates and measured at 24 hrs post transfer by agar well diffusion method. The settings on record: MTCC 96, 24 h. It counts as functional.
Test [24] concerns Staphylococcus aureus. Briefly: Antibiofilm activity against Staphylococcus aureus MTCC 96 assessed as inhibition of biofilm formation incubated for 48 hrs in presence of Escherichia coli MTCC 739 by FE-SEM analysis. It counts as functional, organism-based. The settings on record: MTCC 96, 48 h.

≈ marks a conversion by molar mass, not a printed value. Calls of active or inactive are those of the source.

For `O=C(c1cn(-c2ccc(F)cc2Br)nn1)c1c(-c2ccccc2)nc2sccn12`, the IC50 (in general, the midpoint of a concentration-inhibition curve) in the test with Staphylococcus aureus [1] worked out at 12.8 µg/mL (≈ 27.3 µM); in the test with Escherichia coli [6], 18.2 µg/mL (≈ 38.9 µM); in the test with Bacillus subtilis [7] it was 13.5 µg/mL (≈ 28.8 µM); with Raoultella planticola [12], 17.3 µg/mL (≈ 36.9 µM); with Micrococcus luteus [15], 12.3 µg/mL (≈ 26.3 µM); in the test on Staphylococcus aureus [18], 13.5 µg/mL (≈ 28.8 µM). The IC50 stood at 18.2 µg/mL (≈ 38.9 µM) with Pseudomonas aeruginosa [22] and 48.2 µg/mL (≈ 103 µM) in the test on MRC5. Besides, the MBC (usually the smallest concentration meeting the test's criterion for killing) with Escherichia coli [2] worked out at 3.9 µg/mL (≈ 8.33 µM); in the test on Staphylococcus aureus [4], 3.9 µg/mL (≈ 8.33 µM); in the test on Raoultella planticola [11], 7.8 µg/mL (≈ 16.7 µM); in the test with Micrococcus luteus [14], 7.8 µg/mL (≈ 16.7 µM); in the test with Pseudomonas aeruginosa [16], 7.8 µg/mL (≈ 16.7 µM); in the test with Bacillus subtilis [19], 7.8 µg/mL (≈ 16.7 µM). The MBC in the test with Staphylococcus aureus [23] was found to be 3.9 µg/mL (≈ 8.33 µM). Besides, the MIC (usually the smallest concentration in the dilution series that meets the test's criterion for growth inhibition) in the test with Raoultella planticola [3] stood at 3.9 µg/mL (≈ 8.33 µM); in the test on Staphylococcus aureus [8] it was 1.9 µg/mL (≈ 4.06 µM); in the test on Escherichia coli [9], 1.9 µg/mL (≈ 4.06 µM); in the test on Micrococcus luteus [10], 3.9 µg/mL (≈ 8.33 µM); in the test with Staphylococcus aureus [13], 1.9 µg/mL (≈ 4.06 µM); in the test with Pseudomonas aeruginosa [17], 3.9 µg/mL (≈ 8.33 µM). The MIC with Candida albicans [20] (MTCC 3017, 24 h) amounted to 7.8 µg/mL (≈ 16.7 µM); with Bacillus subtilis [21] it was 3.9 µg/mL (≈ 8.33 µM). The MFC (as a rule, the smallest concentration meeting the test's criterion for killing the fungus) in the test with Candida albicans [5] (MTCC 3017, 24 h) came to 15.6 µg/mL (≈ 33.3 µM).
As for `O=C(O)c1cn(C2CC2)c2cc(N3CCNCC3)c(F)cc2c1=O` [CIPROFLOXACIN], the IC50 came out at 6.6 µg/mL (≈ 19.9 µM) in the test on Staphylococcus aureus [1]; 6.6 µg/mL (≈ 19.9 µM) in the test with Bacillus subtilis [7]; 8.6 µg/mL (≈ 26 µM) in the test on Raoultella planticola [12]; 6.8 µg/mL (≈ 20.5 µM) in the test with Micrococcus luteus [15]; 11.6 µg/mL in the test on Staphylococcus aureus [24]; 6.7 µg/mL (≈ 20.2 µM) in the test with Staphylococcus aureus [18]. The IC50 with Pseudomonas aeruginosa [22] was found to be 7.4 µg/mL (≈ 22.3 µM); in the test with MRC5 it was 53.4 µg/mL (≈ 161 µM). In addition, the minimum bactericidal concentration (MBC) with Escherichia coli [2], in the test with Staphylococcus aureus [4], in the test on Raoultella planticola [11], in the test with Micrococcus luteus [14], in the test on Pseudomonas aeruginosa [16] and in the test with Bacillus subtilis [19] was 1.9 µg/mL (≈ 5.73 µM) each time. Moreover, the MBC in the test with Staphylococcus aureus [23] stood at 1.9 µg/mL (≈ 5.73 µM). For the same compound, the MIC with Raoultella planticola [3], in the test on Staphylococcus aureus [8], in the test on Escherichia coli [9], with Micrococcus luteus [10], with Staphylococcus aureus [13] and in the test with Pseudomonas aeruginosa [17] was 0.9 µg/mL (≈ 2.72 µM) throughout. In addition, the MIC in the test on Bacillus subtilis [21] amounted to 0.9 µg/mL (≈ 2.72 µM). In addition, the MFC entry in the test with Candida albicans [5] is “inactive”. Further, the MIC entry in the test with Candida albicans [20] was “inactive”.
In the case of `O=C(c1cn(-c2ccc(Cl)cc2)nn1)c1c(-c2ccc(Cl)cc2)nc2sccn12`, the IC50 with Staphylococcus aureus [1] was 11.9 µg/mL (≈ 27 µM); in the test with Escherichia coli [6], 14 µg/mL (≈ 31.8 µM); with Bacillus subtilis [7] it was 13.2 µg/mL (≈ 30 µM); in the test on Raoultella planticola [12], 16.8 µg/mL (≈ 38.2 µM); in the test on Micrococcus luteus [15] it was 13.7 µg/mL (≈ 31.1 µM); with Staphylococcus aureus [18] it was 18.4 µg/mL (≈ 41.8 µM). For the same compound, the IC50 in the test with Pseudomonas aeruginosa [22] came to 19.3 µg/mL (≈ 43.8 µM); with MRC5 it was 24.2 µg/mL (≈ 55 µM). The MBC with Escherichia coli [2] was found to be 7.8 µg/mL (≈ 17.7 µM); with Staphylococcus aureus [4] it was 15.6 µg/mL (≈ 35.4 µM); with Raoultella planticola [11] it was 7.8 µg/mL (≈ 17.7 µM); with Micrococcus luteus [14] it was 7.8 µg/mL (≈ 17.7 µM); in the test on Pseudomonas aeruginosa [16], 7.8 µg/mL (≈ 17.7 µM); in the test on Bacillus subtilis [19], 7.8 µg/mL (≈ 17.7 µM). In addition, the MBC with Staphylococcus aureus [23] worked out at 7.8 µg/mL (≈ 17.7 µM). In addition, the MIC with Raoultella planticola [3] came out at 3.9 µg/mL (≈ 8.86 µM); with Staphylococcus aureus [8], 7.8 µg/mL (≈ 17.7 µM); in the test on Escherichia coli [9] it was 3.9 µg/mL (≈ 8.86 µM); with Micrococcus luteus [10] it was 3.9 µg/mL (≈ 8.86 µM); with Staphylococcus aureus [13], 3.9 µg/mL (≈ 8.86 µM); in the test with Pseudomonas aeruginosa [17], 3.9 µg/mL (≈ 8.86 µM). Further, the MIC amounted to 7.8 µg/mL (≈ 17.7 µM) in the test on Candida albicans [20] (MTCC 3017, 24 h) and 3.9 µg/mL (≈ 8.86 µM) in the test with Bacillus subtilis [21]. The MFC in the test on Candida albicans [5] (MTCC 3017, 24 h) was found to be 15.6 µg/mL (≈ 35.4 µM).

These data come from ChEMBL document CHEMBL4396937, “Synthesis of new triazole fused imidazo[2,1-b]thiazole hybrids with emphasis on Staphylococcus aureus virulence factors” (Bioorg Med Chem Lett, 2019).
